Several values for one entry are separate records, joined by “and”; a condition that tells them apart may be missing. Equal entries are not always repeated. Numbers after ± are expanded uncertainties.
Conditions: Liquid, Closed cell (Static) method

CCN(CC)CCCN [N,N-diethylpropane-1,3-diamine]
Conditions	vapor or sublimation pressure
263.16 K	0.014 ± 0.001 kPa
273.05 K	0.034 ± 0.002 kPa
273.15 K	0.0338 ± 0.0025 kPa
283.15 K	0.0768 ± 0.0054 kPa
283.27 K	0.077 ± 0.005 kPa
293.15 K	0.1631 ± 0.011 kPa
293.22 K	0.163 ± 0.01 kPa
303.14 K	0.326 ± 0.02 kPa
303.15 K	0.3257 ± 0.021 kPa
303.16 K	0.325 ± 0.02 kPa
313.15 K	0.6164 ± 0.016 kPa
313.16 K	0.616 ± 0.014 kPa
313.18 K	0.616 ± 0.014 kPa
323.15 K	1.112 ± 0.029 kPa
323.16 K	1.114 ± 0.024 kPa and 1.112 ± 0.024 kPa
333.15 K	1.922 ± 0.023 kPa
333.18 K	1.94 ± 0.016 kPa
343.15 K	3.199 ± 0.031 kPa
343.21 K	3.234 ± 0.024 kPa
353.15 K	5.143 ± 0.044 kPa
353.19 K	5.161 ± 0.036 kPa and 5.162 ± 0.036 kPa
363.15 K	8.017 ± 0.064 kPa
363.25 K	7.965 ± 0.053 kPa

CN(C)CCCN [N,N-dimethyl-1,3-propanediamine]
Conditions	vapor or sublimation pressure
273.04 K	0.183 ± 0.011 kPa
283.06 K	0.381 ± 0.023 kPa
283.15 K	0.3844 ± 0.024 kPa
293.13 K	0.749 ± 0.016 kPa
293.15 K	0.7536 ± 0.02 kPa
303.15 K	1.397 ± 0.02 kPa
303.16 K	1.396 ± 0.013 kPa
313.15 K	2.464 ± 0.027 kPa
313.21 K	2.478 ± 0.019 kPa
323.15 K	4.162 ± 0.038 kPa
323.27 K	4.186 ± 0.03 kPa
333.15 K	6.763 ± 0.056 kPa
333.32 K	6.828 ± 0.047 kPa
343.15 K	10.61 ± 0.083 kPa
343.37 K	10.73 ± 0.071 kPa and 10.72 ± 0.071 kPa
353.15 K	16.15 ± 0.12 kPa
353.41 K	16.31 ± 0.11 kPa
363.15 K	23.9 ± 0.17 kPa
363.44 K	24.1 ± 0.15 kPa

CNCCCN [N-methyl-1,3-diaminopropane]
Conditions	vapor or sublimation pressure
273 K	0.089 ± 0.006 kPa
273.15 K	0.089 ± 0.0062 kPa
283.15 K	0.204 ± 0.013 kPa
283.37 K	0.205 ± 0.013 kPa
293.15 K	0.4319 ± 0.027 kPa
293.47 K	0.431 ± 0.026 kPa
303.11 K	0.861 ± 0.019 kPa
303.15 K	0.8539 ± 0.022 kPa
313.15 K	1.591 ± 0.022 kPa
313.18 K	1.607 ± 0.014 kPa
323.15 K	2.814 ± 0.029 kPa
323.26 K	2.83 ± 0.021 kPa and 2.828 ± 0.021 kPa
333.15 K	4.755 ± 0.042 kPa
333.23 K	4.764 ± 0.034 kPa
333.25 K	4.764 ± 0.034 kPa
343.15 K	7.716 ± 0.062 kPa
343.26 K	7.745 ± 0.053 kPa
343.28 K	7.742 ± 0.053 kPa
343.3 K	7.74 ± 0.053 kPa
352.54 K	11.85 ± 0.078 kPa
353.15 K	12.08 ± 0.093 kPa
353.24 K	12.14 ± 0.079 kPa
362.82 K	18.1 ± 0.12 kPa
362.84 K	18.11 ± 0.12 kPa
363.15 K	18.31 ± 0.14 kPa
372.74 K	26.61 ± 0.17 kPa
372.76 K	26.61 ± 0.17 kPa
382.84 K	38.34 ± 0.25 kPa
382.87 K	38.35 ± 0.25 kPa
392.92 K	53.96 ± 0.35 kPa
392.95 K	53.96 ± 0.35 kPa
402.59 K	73.4 ± 0.47 kPa
402.61 K	73.41 ± 0.47 kPa
422.46 K	129.8 ± 0.82 kPa and 129.79 ± 0.82 kPa
422.51 K	129.84 ± 0.82 kPa
432.4 K	169.97 ± 1.1 kPa and 170.02 ± 1.1 kPa

From the NIST ThermoML archive (doi:10.1016/j.jct.2015.08.023)
